Measured values published in PubChem BioAssay (NCI).
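Grown in 96-well plates, cells were treated for 48 hours with each compound at five concentrations. Insufficient inhibition: endpoint recorded as highest concentration tested. GI50 marks 50% less growth. Definition used: TGI = concentration required for complete inhibition of growth.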

Legend:
Test in all cases: inhibition of tumour cell growth, NCI panel, 48 h
ACHN renal = tested on: ACHN renal
HCT-15 colon = tested on: HCT-15 colon
HT29 colon = tested on: HT29 colon
K-562 leukemia = tested on: K-562 leukemia
M14 melanoma = tested on: M14 melanoma
NCI-H460 lung = tested on: NCI-H460 lung
OVCAR-5 ovarian = tested on: OVCAR-5 ovarian
OVCAR-8 ovarian = tested on: OVCAR-8 ovarian
RXF 393 renal = tested on: RXF 393 renal
SW-620 colon = tested on: SW-620 colon

Cc1c2ccncc2c(C)c2c1c1cc(CO)ccc1n2C
GI50 (ACHN renal): 0.362 µM | TGI (ACHN renal): 9.39 µM | GI50 (HCT-15 colon): 0.354 µM | TGI (HCT-15 colon): 10 µM | GI50 (HT29 colon): 0.338 µM | TGI (HT29 colon): 1.78 µM | GI50 (K-562 leukemia): 0.473 µM | TGI (K-562 leukemia): 5.82 µM | GI50 (M14 melanoma): 0.687 µM | TGI (M14 melanoma): 3.27 µM | GI50 (NCI-H460 lung): 0.243 µM | TGI (NCI-H460 lung): 1.1 µM | GI50 (OVCAR-5 ovarian): 0.267 µM | TGI (OVCAR-5 ovarian): 0.984 µM | GI50 (OVCAR-8 ovarian): 0.449 µM | TGI (OVCAR-8 ovarian): 10.1 µM | GI50 (RXF 393 renal): 0.41 µM | TGI (RXF 393 renal): 1.7 µM | GI50 (SW-620 colon): 0.297 µM | TGI (SW-620 colon): 10.9 µM

Nc1ncccc1-c1nc2ccc(-c3ccccc3)nc2n1-c1ccc(C2(N)CCC2)cc1
GI50 (ACHN renal): 1.14 µM | TGI (ACHN renal): 3.19 µM | GI50 (HCT-15 colon): 1.34 µM | TGI (HCT-15 colon): 4.27 µM | GI50 (HT29 colon): 0.435 µM | TGI (HT29 colon): 3.37 µM | GI50 (K-562 leukemia): 1.89 µM | TGI (K-562 leukemia): 4.5 µM | GI50 (M14 melanoma): 1.4 µM | TGI (M14 melanoma): 2.96 µM | GI50 (NCI-H460 lung): 0.333 µM | TGI (NCI-H460 lung): 2.99 µM | GI50 (OVCAR-5 ovarian): 1.53 µM | TGI (OVCAR-5 ovarian): 8.23 µM | GI50 (OVCAR-8 ovarian): 2.06 µM | TGI (OVCAR-8 ovarian): 6.24 µM | GI50 (RXF 393 renal): 0.214 µM | TGI (RXF 393 renal): 1.63 µM | GI50 (SW-620 colon): 1.53 µM | TGI (SW-620 colon): 3.35 µM

CC(=O)C12C[C@](C#N)(N3CCCCCC3)C1C=Cc1ccccc12 (some centres undefined)
TGI (ACHN renal): > 100 µM | TGI (HCT-15 colon): > 100 µM | TGI (HT29 colon): > 100 µM | TGI (K-562 leukemia): > 100 µM | TGI (M14 melanoma): > 100 µM | TGI (NCI-H460 lung): > 100 µM | TGI (OVCAR-8 ovarian): > 100 µM | TGI (RXF 393 renal): > 100 µM | TGI (SW-620 colon): > 100 µM

COC(=O)/C(=C\c1ccco1)P(=O)(OC)OC
TGI (ACHN renal): > 100 µM | TGI (HCT-15 colon): > 100 µM | TGI (HT29 colon): 69.7 µM | TGI (K-562 leukemia): > 100 µM | TGI (M14 melanoma): > 100 µM | TGI (NCI-H460 lung): > 100 µM | TGI (OVCAR-5 ovarian): 31.8 µM | TGI (OVCAR-8 ovarian): > 100 µM | TGI (RXF 393 renal): > 100 µM | TGI (SW-620 colon): > 100 µM

C/C(=C\Cc1cc(O)ccc1O)CCc1c(C)c(O)c(O)c(C=O)c1C
TGI (ACHN renal): 52.8 µM | TGI (HCT-15 colon): > 100 µM | TGI (HT29 colon): 64.8 µM | TGI (K-562 leukemia): > 100 µM | TGI (M14 melanoma): 77.3 µM | TGI (NCI-H460 lung): 53.3 µM | TGI (OVCAR-8 ovarian): 47 µM | TGI (RXF 393 renal): 43.8 µM | TGI (SW-620 colon): > 100 µM

COc1ccc(-c2ccc(/C=N/n3c(COc4ccccc4Cl)n[nH]c3=S)o2)c([N+](=O)[O-])c1
GI50 (ACHN renal): 25.6 µM | TGI (ACHN renal): 69.5 µM | GI50 (HCT-15 colon): 26.5 µM | TGI (HCT-15 colon): 89.2 µM | GI50 (HT29 colon): 41.1 µM | TGI (HT29 colon): > 100 µM | GI50 (K-562 leukemia): 34.1 µM | TGI (K-562 leukemia): > 100 µM | GI50 (M14 melanoma): 26.6 µM | TGI (M14 melanoma): 79.1 µM | GI50 (NCI-H460 lung): 23.7 µM | TGI (NCI-H460 lung): 52.7 µM | GI50 (OVCAR-5 ovarian): 44.9 µM | TGI (OVCAR-5 ovarian): > 100 µM | GI50 (OVCAR-8 ovarian): 21.3 µM | TGI (OVCAR-8 ovarian): 55.4 µM | GI50 (RXF 393 renal): 15.5 µM | TGI (RXF 393 renal): 52.1 µM

CC1=C[C@@H](C)C[C@]2(C)CC[C@H](O2)[C@]23CC[C@](C)(C[C@H](O2)[C@@H]2O[C@@](C)(CC2=O)[C@@H](O)[C@H]2CC[C@@]4(CCC[C@@H](O4)[C@H](C)C(=O)O[C@H]4C[C@H]([C@]5(O)OCC[C@H](C)[C@@H]5O)O[C@H]4C=C1)O2)O3
TGI (ACHN renal): > 5.25 µM | TGI (HCT-15 colon): > 10 µM | TGI (HT29 colon): > 10 µM | TGI (K-562 leukemia): > 10 µM | TGI (NCI-H460 lung): > 10 µM | TGI (OVCAR-5 ovarian): > 10 µM | TGI (OVCAR-8 ovarian): > 10 µM | TGI (RXF 393 renal): 0.00747 µM | TGI (SW-620 colon): > 10 µM

COC1(C)C(=O)N2C1N(C(=O)OCc1ccccc1)CC2(C)C (centres undefined)
TGI (ACHN renal): > 100 µM | TGI (HCT-15 colon): > 100 µM | TGI (HT29 colon): > 100 µM | TGI (K-562 leukemia): > 100 µM | TGI (M14 melanoma): > 100 µM | TGI (NCI-H460 lung): > 100 µM | TGI (OVCAR-8 ovarian): > 100 µM | TGI (RXF 393 renal): > 100 µM | TGI (SW-620 colon): > 100 µM
